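96-well plates; 48 h exposure; 5 concentrations. Endpoints by linear interpolation between flanking doses. Not reached: highest tested concentration assigned. GI50 is the concentration that inhibits growth by half.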 Activity calls are given as the source filed them. Rule as the data show it: active = GI50 up to about 1.1 µM and inactive = higher.
Columns and labels:
Experiment in all cases: NCI anticancer screen, dose series, 48 h
SF-295 = tested on: SF-295
XF498 = tested on: XF498
UACC-62 = tested on: UACC-62
SK-OV-3 = tested on: SK-OV-3
OVCAR-8 = tested on: OVCAR-8
M14 = tested on: M14
KM12 = tested on: KM12
A498 = tested on: A498
DMS-114 = tested on: DMS-114
NCI-H522 = tested on: NCI-H522
HT-29 = tested on: HT-29
HL-60 = tested on: HL-60
SR = tested on: SR
OVCAR-5 = tested on: OVCAR-5
UO-31 = tested on: UO-31
KM-20L2 = tested on: KM-20L2
HOP-18 = tested on: HOP-18
EKVX = tested on: EKVX
HCT-15 = tested on: HCT-15
SF-539 = tested on: SF-539
COLO 205 = tested on: COLO 205
DLD-1 = tested on: DLD-1
CCRF-CEM = tested on: CCRF-CEM
Malme-3M = tested on: Malme-3M
A549 = tested on: A549
ACHN = tested on: ACHN
SF-268 = tested on: SF-268
SN12C = tested on: SN12C
HCC 2998 = tested on: HCC 2998
NCI-H23 = tested on: NCI-H23
UACC-257 = tested on: UACC-257
LXFL 529 = tested on: LXFL 529
U-251 = tested on: U-251
SNB-75 = tested on: SNB-75
MOLT-4 = tested on: MOLT-4
K562 = tested on: K562
HOP-62 = tested on: HOP-62
786-0 = tested on: 786-0
M19-MEL = tested on: M19-MEL
SNB-19 = tested on: SNB-19
DMS-273 = tested on: DMS-273
OVCAR-3 = tested on: OVCAR-3
IGROV-1 = tested on: IGROV-1
SNB-78 = tested on: SNB-78
SK-MEL-2 = tested on: SK-MEL-2
HCT-116 = tested on: HCT-116
SK-MEL-28 = tested on: SK-MEL-28
RXF 631 = tested on: RXF 631
NCI-H226 = tested on: NCI-H226
OVCAR-4 = tested on: OVCAR-4
HOP-92 = tested on: HOP-92
SW-620 = tested on: SW-620
LOX IMVI = tested on: LOX IMVI
RXF 393 = tested on: RXF 393
CAKI-1 = tested on: CAKI-1
SK-MEL-5 = tested on: SK-MEL-5
TK-10 = tested on: TK-10
NCI-H460 = tested on: NCI-H460
RPMI-8226 = tested on: RPMI-8226
NCI/ADR-RES = tested on: NCI/ADR-RES
Hs-578T = tested on: Hs-578T
BT-549 = tested on: BT-549
MDA-N = tested on: MDA-N
PC-3 = tested on: PC-3
MCF7 = tested on: MCF7
MDA-MB-435 = tested on: MDA-MB-435
T47D = tested on: T47D
DU-145 = tested on: DU-145
MDA-MB-231 = tested on: MDA-MB-231

CC1NOC(=O)C1/N=N/c1ccc(Cl)cc1Cl (stereo unspecified)
GI50 (SF-295): 28.8 µM (inactive)
GI50 (XF498): 23.1 µM (inactive)
GI50 (UACC-62): 30.7 µM (inactive)
GI50 (SK-OV-3): 29.3 µM (inactive)
GI50 (OVCAR-8): 31.6 µM (inactive)
GI50 (M14): 21 µM (inactive)
GI50 (KM12): 15.1 µM (inactive)
GI50 (A498): 35.3 µM (inactive)
GI50 (DMS-114): 24.2 µM (inactive)
GI50 (NCI-H522): 17.8 µM (inactive)
GI50 (HT-29): 32.8 µM (inactive)
GI50 (HL-60): 16 µM (inactive)
GI50 (SR): 18.7 µM (inactive)
GI50 (OVCAR-5): 69.7 µM (inactive)
GI50 (UO-31): 24.4 µM (inactive)
GI50 (KM-20L2): 30.6 µM (inactive)
GI50 (HOP-18): 18.5 µM (inactive)
GI50 (EKVX): 24.6 µM (inactive)
GI50 (HCT-15): 18.5 µM
GI50 (SF-539): 47.4 µM (inactive)
GI50 (COLO 205): 20 µM (inactive)
GI50 (DLD-1): 33.9 µM (inactive)
GI50 (CCRF-CEM): 30.9 µM (inactive)
GI50 (Malme-3M): 25.5 µM (inactive)
GI50 (A549): 23 µM (inactive)
GI50 (ACHN): 21.4 µM (inactive)
GI50 (SF-268): 32.2 µM (inactive)
GI50 (SN12C): 21.6 µM (inactive)
GI50 (HCC 2998): 29.9 µM (inactive)
GI50 (NCI-H23): 20.8 µM (inactive)
GI50 (UACC-257): 24.5 µM (inactive)
GI50 (LXFL 529): 21.9 µM (inactive)
GI50 (U-251): 18.5 µM (inactive)
GI50 (SNB-75): 20.9 µM (inactive)
GI50 (MOLT-4): 19.6 µM (inactive)
GI50 (K562): 25.2 µM (inactive)
GI50 (HOP-62): 43 µM (inactive)
GI50 (786-0): 18.7 µM (inactive)
GI50 (M19-MEL): 27.2 µM (inactive)
GI50 (SNB-19): 22.6 µM (inactive)
GI50 (DMS-273): 20.9 µM (inactive)
GI50 (OVCAR-3): 16.4 µM (inactive)
GI50 (IGROV-1): 26.9 µM (inactive)
GI50 (SNB-78): 26.3 µM (inactive)
GI50 (SK-MEL-2): 23.8 µM (inactive)
GI50 (HCT-116): 21.9 µM (inactive)
GI50 (SK-MEL-28): 38.9 µM (inactive)
GI50 (RXF 631): 38.2 µM (inactive)
GI50 (NCI-H226): 25.4 µM (inactive)
GI50 (OVCAR-4): 21.6 µM (inactive)
GI50 (HOP-92): 19.8 µM (inactive)
GI50 (SW-620): 7.98 µM (inactive)
GI50 (LOX IMVI): 27.2 µM (inactive)
GI50 (RXF 393): 20.7 µM (inactive)
GI50 (CAKI-1): 24.4 µM (inactive)
GI50 (SK-MEL-5): 25.8 µM (inactive)
GI50 (TK-10): 23.8 µM (inactive)
GI50 (NCI-H460): 24.7 µM (inactive)

O=C1C2C3C=CC(C2C(=O)N1CN1CCSCC1)C1C2C(=O)N(CN4CCSCC4)C(=O)C2C31 (stereo unspecified)
GI50 (SF-295): > 100 µM (inactive)
GI50 (XF498): > 100 µM (inactive)
GI50 (UACC-62): > 100 µM (inactive)
GI50 (SK-OV-3): > 100 µM (inactive)
GI50 (OVCAR-8): > 94.2 µM (inactive)
GI50 (M14): > 100 µM (inactive)
GI50 (KM12): > 100 µM (inactive)
GI50 (A498): > 100 µM (inactive)
GI50 (DMS-114): 38.8 µM (inactive)
GI50 (NCI-H522): > 100 µM (inactive)
GI50 (HT-29): > 74 µM (inactive)
GI50 (HL-60): 29.9 µM (inactive)
GI50 (SR): 39.7 µM (inactive)
GI50 (OVCAR-5): > 100 µM (inactive)
GI50 (UO-31): > 100 µM (inactive)
GI50 (KM-20L2): > 76.2 µM (inactive)
GI50 (HOP-18): 41.2 µM (inactive)
GI50 (RPMI-8226): 25.5 µM (inactive)
GI50 (EKVX): > 100 µM (inactive)
GI50 (HCT-15): 34.8 µM
GI50 (SF-539): > 100 µM (inactive)
GI50 (COLO 205): 56.5 µM (inactive)
GI50 (DLD-1): > 51.4 µM (inactive)
GI50 (CCRF-CEM): 45.9 µM (inactive)
GI50 (Malme-3M): > 100 µM (inactive)
GI50 (A549): 62.1 µM (inactive)
GI50 (ACHN): > 77.6 µM (inactive)
GI50 (SF-268): > 50.4 µM (inactive)
GI50 (SN12C): 97.9 µM (inactive)
GI50 (HCC 2998): > 100 µM (inactive)
GI50 (NCI-H23): > 100 µM (inactive)
GI50 (UACC-257): > 100 µM (inactive)
GI50 (LXFL 529): > 100 µM (inactive)
GI50 (U-251): > 72.1 µM (inactive)
GI50 (SNB-75): 45.3 µM (inactive)
GI50 (MOLT-4): > 78.5 µM (inactive)
GI50 (K562): > 100 µM (inactive)
GI50 (HOP-62): > 100 µM (inactive)
GI50 (786-0): > 52.4 µM (inactive)
GI50 (M19-MEL): > 100 µM (inactive)
GI50 (SNB-19): > 100 µM (inactive)
GI50 (DMS-273): > 43.5 µM (inactive)
GI50 (OVCAR-3): > 100 µM (inactive)
GI50 (IGROV-1): > 100 µM (inactive)
GI50 (SNB-78): > 100 µM (inactive)
GI50 (SK-MEL-2): > 100 µM (inactive)
GI50 (HCT-116): > 41.2 µM (inactive)
GI50 (SK-MEL-28): > 100 µM (inactive)
GI50 (RXF 631): > 100 µM (inactive)
GI50 (NCI-H226): > 100 µM (inactive)
GI50 (OVCAR-4): > 100 µM (inactive)
GI50 (HOP-92): > 75.5 µM (inactive)
GI50 (SW-620): 31.7 µM (inactive)
GI50 (LOX IMVI): > 53.5 µM (inactive)
GI50 (RXF 393): > 100 µM (inactive)
GI50 (CAKI-1): > 100 µM (inactive)
GI50 (SK-MEL-5): > 100 µM (inactive)
GI50 (TK-10): > 100 µM (inactive)
GI50 (NCI-H460): 31.2 µM (inactive)

COC1/C=C/OC2(C)Oc3c(C)c(O)c4c(c3C2=O)C(=O)C=C(NC(=O)/C(C)=C\C=C\C(C)C(OC=O)C(C)C(O)C(C)C(OC(C)=O)C1C)C4=O (stereo unspecified)
GI50 (SF-295): 23.3 µM (inactive)
GI50 (XF498): 4 µM (inactive)
GI50 (UACC-62): 12.7 µM (inactive)
GI50 (SK-OV-3): 28.7 µM (inactive)
GI50 (OVCAR-8): 15.3 µM (inactive)
GI50 (M14): 8.65 µM (inactive)
GI50 (KM12): 26.8 µM (inactive)
GI50 (A498): 18.6 µM (inactive)
GI50 (DMS-114): 16.8 µM (inactive)
GI50 (NCI-H522): 2.45 µM (inactive)
GI50 (NCI/ADR-RES): 17.5 µM (inactive)
GI50 (HT-29): 10.5 µM (inactive)
GI50 (HL-60): 2.33 µM (inactive)
GI50 (SR): 2.77 µM (inactive)
GI50 (Hs-578T): 15.2 µM (inactive)
GI50 (OVCAR-5): 20.7 µM (inactive)
GI50 (UO-31): 16 µM (inactive)
GI50 (KM-20L2): 18.2 µM (inactive)
GI50 (HOP-18): 5.36 µM (inactive)
GI50 (BT-549): 11.1 µM (inactive)
GI50 (MDA-N): 15.8 µM (inactive)
GI50 (RPMI-8226): 5.22 µM (inactive)
GI50 (EKVX): 14.7 µM (inactive)
GI50 (HCT-15): 8.61 µM
GI50 (SF-539): 17.6 µM (inactive)
GI50 (COLO 205): 4.59 µM (inactive)
GI50 (DLD-1): 9.89 µM (inactive)
GI50 (CCRF-CEM): 2.03 µM (inactive)
GI50 (Malme-3M): 13.4 µM (inactive)
GI50 (A549): 21 µM (inactive)
GI50 (ACHN): 8.67 µM (inactive)
GI50 (SF-268): 17.7 µM (inactive)
GI50 (SN12C): 15.2 µM (inactive)
GI50 (HCC 2998): 19.6 µM (inactive)
GI50 (NCI-H23): 14.4 µM (inactive)
GI50 (UACC-257): 11.4 µM (inactive)
GI50 (LXFL 529): 6.5 µM (inactive)
GI50 (U-251): 20.6 µM (inactive)
GI50 (SNB-75): 18.3 µM (inactive)
GI50 (MOLT-4): 3.01 µM (inactive)
GI50 (K562): 3.61 µM (inactive)
GI50 (PC-3): 10.3 µM (inactive)
GI50 (HOP-62): 18.7 µM (inactive)
GI50 (MCF7): 2.93 µM (inactive)
GI50 (786-0): 8.24 µM (inactive)
GI50 (M19-MEL): 13.1 µM (inactive)
GI50 (SNB-19): 14.5 µM (inactive)
GI50 (DMS-273): 16.9 µM (inactive)
GI50 (OVCAR-3): 3.76 µM (inactive)
GI50 (IGROV-1): 18.5 µM (inactive)
GI50 (SNB-78): 20.1 µM (inactive)
GI50 (SK-MEL-2): 20 µM (inactive)
GI50 (HCT-116): 4.82 µM (inactive)
GI50 (SK-MEL-28): 6.64 µM (inactive)
GI50 (RXF 631): 15.7 µM (inactive)
GI50 (MDA-MB-435): 16 µM (inactive)
GI50 (T47D): 3.65 µM (inactive)
GI50 (NCI-H226): 13.6 µM (inactive)
GI50 (OVCAR-4): 7.4 µM (inactive)
GI50 (DU-145): 18.8 µM (inactive)
GI50 (HOP-92): 13.5 µM (inactive)
GI50 (SW-620): 4.04 µM (inactive)
GI50 (LOX IMVI): 7.5 µM (inactive)
GI50 (RXF 393): 7.67 µM (inactive)
GI50 (CAKI-1): 12 µM (inactive)
GI50 (SK-MEL-5): 15.8 µM (inactive)
GI50 (TK-10): 16.6 µM (inactive)
GI50 (NCI-H460): 21.1 µM (inactive)
GI50 (MDA-MB-231): 13.4 µM (inactive)

From ChEMBL document CHEMBL1201862, “PubChem BioAssay data set” (2004)
